Patent publication US10925880B2, “Combination of PI3K-inhibitors” (BAYER PHARMA AKTIENGESELLSCHAFT, priority 2016, dated 2021)
Counter-ions that a name gives are not always drawn.

Columns and labels:
Assay type in all cases: cell-based
[1] = system: Mantle Cell Lymphoma (MCL), Marginal zone lymphoma (MZL) and Splenic marginal zone lymphoma (SMZL) cell lines; assay: 72-hour cell proliferation assay, summary over the cell line panel; settings: ten MCL, three MZL and three SMZL cell lines, range over panel
Protocol: (§1) Combinations of Copanlisib and ABT-199 or Palbociclib in a Panel Cell Lines Assessed by the Combination Index (CI) of a 72-Hour Cell Proliferation Assay The effect of combinations of the present invention was evaluated using combination index isobologram analysis for in vitro assessment. The efficacy parameter was the effect in a 72-hour cell proliferation assay. Briefly, 3000 cells were plated in 384-well plates with appropriate growth medium. […] Cells were treated for 72 hours followed by assessment of cell viability by means of Cell Titer Glo assay (Promega). Experiments were conducted in duplicates. The mapping IC50 values were calculated. The corresponding component concentrations of copanlisib and ABT-199 or Palbociclib were calculated and used for plotting isobolograms. Effects were analyzed as described by Chou (Pharmacology Reviews 2006) and the combination index was calculated using the formula: Combination Index=[Ax]/A′+[Bx]/B′ [Ax] and [Bx] refer to component A and component B. A′ and B′ refer to the IC50 values of A and B, respectively, as a single agent. […] Cis of 0.9-1.1 were defined as additive effect. Cis greater than 1.1 were defined as antagonistic effects.

VL51 = assay: 72-hour cell proliferation assay (Cell Titer Glo); settings: VL51 (SMZL), single agent; for IC50: Homo sapiens, 72 h
Protocol: as §1

MINO = assay: 72-hour cell proliferation assay (Cell Titer Glo); settings: MINO (MCL), single agent; for IC50: Homo sapiens, 72 h
Protocol: as §1

REC-1 = assay: 72-hour cell proliferation assay (Cell Titer Glo); settings: REC-1 (MCL), single agent; for IC50: Homo sapiens, Rec1, 72 h
Protocol: as §1

GRANTA-519 = assay: 72-hour cell proliferation assay (Cell Titer Glo); settings: GRANTA-519 (MCL), single agent; for IC50: Homo sapiens, 72 h
Protocol: as §1

JVM-2 = assay: 72-hour cell proliferation assay (Cell Titer Glo); settings: JVM-2 (MCL), single agent; for IC50: Homo sapiens, 72 h
Protocol: as §1

HAIR-M = assay: 72-hour cell proliferation assay (Cell Titer Glo); settings: HAIR-M (MZL), single agent; for IC50: 72 h
Protocol: as §1

SSK41 = assay: 72-hour cell proliferation assay (Cell Titer Glo); settings: SSK41 (SMZL), single agent; for IC50: 72 h
Protocol: as §1

HC-1 = assay: 72-hour cell proliferation assay (Cell Titer Glo); settings: HC-1 (MZL), single agent; for IC50: 72 h
Protocol: as §1

ESKOL = assay: 72-hour cell proliferation assay (Cell Titer Glo); settings: ESKOL (MZL), single agent; for IC50: 72 h
Protocol: as §1

JEKO-1 = assay: 72-hour cell proliferation assay (Cell Titer Glo); settings: JEKO-1 (MCL), single agent; for IC50: Homo sapiens, 72 h
Protocol: as §1

KARPAS-1718 = assay: 72-hour cell proliferation assay (Cell Titer Glo); settings: KARPAS-1718 (SMZL), single agent; for IC50: 72 h
Protocol: as §1

Z-138 = assay: 72-hour cell proliferation assay (Cell Titer Glo); settings: Z-138 (MCL), single agent; for IC50: Homo sapiens, 72 h
Protocol: as §1

UPN1 = assay: 72-hour cell proliferation assay (Cell Titer Glo); settings: single agent; for IC50: UPN1 (MCL), 72 h
Protocol: as §1

MAVER-1 = assay: 72-hour cell proliferation assay (Cell Titer Glo); settings: MAVER-1 (MCL), single agent; for IC50: Homo sapiens, Maver1, 72 h
Protocol: as §1

SP-53 = assay: 72-hour cell proliferation assay (Cell Titer Glo); settings: SP-53 (MCL), single agent; for IC50: 72 h
Protocol: as §1

SP-49 = assay: 72-hour cell proliferation assay (Cell Titer Glo); settings: SP-49 (MCL), single agent; for IC50: 72 h
Protocol: as §1

Compound | IC50 (VL51) [nM] | IC50 (MINO) [nM] | IC50 (REC-1) [nM] | IC50 (GRANTA-519) [nM] | IC50 (JVM-2) [nM] | IC50 (HAIR-M) [nM] | IC50 (SSK41) [nM] | IC50 (HC-1) [nM] | IC50 (ESKOL) [nM] | IC50 (JEKO-1) [nM] | IC50 (KARPAS-1718) [nM] | IC50 (Z-138) [nM] | IC50 (UPN1) [nM] | IC50 (MAVER-1) [nM] | IC50 (SP-53) [nM] | IC50 (SP-49) [nM] | other results
COc1c(OCCCN2CCOCC2)ccc2c1N=C(NC(=O)c1cnc(N)nc1)N1CCN=C21 [copanlisib, 2-amino-N—[7-methoxy-8-(3-morpholin-4-ylpropoxy)-2,3-dihydroimidazo[1,2-c]quinazolin-5-yl]pyrimidine-5-carboxamide dihydrochloride] | 20.7 | 102 | 6 | 111 | 21.7 | 5.39 | 50.8 | 183 | 98.8 | 40.9 | 15.1 | 20.5 | 15 | 104 | 1.43 | 2.5 | monotherapy anti-proliferative activity [1]: very strong to moderate; monotherapy anti-proliferative activity (VL51): strong; monotherapy anti-proliferative activity (MINO): moderate; monotherapy anti-proliferative activity (REC-1): very strong; monotherapy anti-proliferative activity (GRANTA-519): moderate; monotherapy anti-proliferative activity (JVM-2): strong; monotherapy anti-proliferative activity (HAIR-M): very strong; monotherapy anti-proliferative activity (SSK41): strong; monotherapy anti-proliferative activity (HC-1): moderate; monotherapy anti-proliferative activity (ESKOL): strong; monotherapy anti-proliferative activity (JEKO-1): strong; monotherapy anti-proliferative activity (KARPAS-1718): strong; monotherapy anti-proliferative activity (Z-138): strong; monotherapy anti-proliferative activity (UPN1; UPN-1 (MCL)): strong; monotherapy anti-proliferative activity (MAVER-1): moderate; monotherapy anti-proliferative activity (SP-53): very strong; monotherapy anti-proliferative activity (SP-49): very strong
CC(=O)c1c(C)c2cnc(Nc3ccc(N4CCNCC4)cn3)nc2n(C2CCCC2)c1=O [palbociclib, reference compound] | ≥ 10000 | 575 | 4710 | ≥ 10000 | 5660 | 1560 | 2310 | 2300 | 2070 | 404 | 7650 | 1290 | 3400 | 470 | 95.9 | 205 | –
CC1(C)CCC(CN2CCN(c3ccc(C(=O)NS(=O)(=O)c4ccc(NCC5CCOCC5)c([N+](=O)[O-])c4)c(Oc4cnc5[nH]ccc5c4)c3)CC2)=C(c2ccc(Cl)cc2)C1 [venetoclax, reference compound] | 1490 | 1.28 | 20.3 | 17.7 | 5740 | 256 | 6230 | ≥ 10000 | ≥ 10000 | 3430 | 3.72 | 1000 | ≥ 10000 | 1.86 | ≥ 10000 | 1720 | –
